Assay [1] concerns the target T1, 5-hydroxytryptamine receptor 2A (Rattus norvegicus, UniProt P14842). The assay is described as follows: Binding affinity towards cloned rat 5-hydroxytryptamine 2A receptor by [3H]ketanserin displacement.
Assay [2] addresses T2, 5-hydroxytryptamine receptor 2C (Rattus norvegicus, UniProt P08909).
T2 sequence (P08909 whole entry): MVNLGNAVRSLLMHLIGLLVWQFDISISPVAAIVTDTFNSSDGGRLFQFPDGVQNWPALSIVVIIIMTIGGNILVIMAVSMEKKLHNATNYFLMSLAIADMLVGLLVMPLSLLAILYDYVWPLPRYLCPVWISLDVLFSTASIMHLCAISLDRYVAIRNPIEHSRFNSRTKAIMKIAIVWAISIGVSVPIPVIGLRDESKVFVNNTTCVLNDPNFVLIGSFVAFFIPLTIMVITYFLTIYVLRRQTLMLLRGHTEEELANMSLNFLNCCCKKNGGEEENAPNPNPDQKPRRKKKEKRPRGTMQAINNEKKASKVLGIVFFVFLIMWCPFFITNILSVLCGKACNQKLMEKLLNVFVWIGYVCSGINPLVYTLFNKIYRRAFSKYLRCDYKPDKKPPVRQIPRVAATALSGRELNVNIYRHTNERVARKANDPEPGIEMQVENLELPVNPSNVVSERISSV
The assay is described as follows: Binding affinity towards cloned rat 5-hydroxytryptamine 2C receptor from fundus tissue by [3H]mesulergine displacement.

Assay [3] addresses T1, 5-hydroxytryptamine receptor 2A. Nature of the assay: Binding affinity for rat 5-hydroxytryptamine 2A receptor using [3H]DOB.
For assay [4] the target is unchanged. The assay is described as follows: Binding affinity towards cloned rat Inhibition of binding towards 5-hydroxytryptamine 2A receptor at 100 nM concentration was determined using [3H]DOB as radioligand.
The target is the same in assay [5]. Nature of the assay: Binding affinity towards cloned rat Inhibition of binding towards 5-hydroxytryptamine 2A receptor at 100 nM concentration was determined using [3H]ketanserin as radioligand.
The target in assay [6] is T3, 5-hydroxytryptamine receptor 2C (Homo sapiens, UniProt P28335).
T3 sequence (P28335 whole entry): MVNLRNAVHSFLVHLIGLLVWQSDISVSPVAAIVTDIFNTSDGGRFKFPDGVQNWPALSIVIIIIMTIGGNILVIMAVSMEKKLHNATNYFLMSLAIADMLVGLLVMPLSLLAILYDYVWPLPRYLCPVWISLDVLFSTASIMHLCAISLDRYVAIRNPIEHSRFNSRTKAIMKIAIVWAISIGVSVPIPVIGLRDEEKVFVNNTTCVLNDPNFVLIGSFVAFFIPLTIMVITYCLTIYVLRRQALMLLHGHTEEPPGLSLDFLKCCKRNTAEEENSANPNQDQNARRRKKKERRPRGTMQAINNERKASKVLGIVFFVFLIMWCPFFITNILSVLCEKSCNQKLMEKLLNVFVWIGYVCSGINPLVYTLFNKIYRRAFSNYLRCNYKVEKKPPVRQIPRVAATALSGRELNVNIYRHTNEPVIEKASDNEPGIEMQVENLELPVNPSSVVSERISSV
Nature of the assay: Binding affinity towards 5-hydroxytryptamine 2C receptor.

In assay [7] the target is 5-hydroxytryptamine receptor 5A (Homo sapiens, UniProt P47898). The assay is described as follows: Binding affinity towards 5-HT5A receptor.
The target in assay [8] is 5-hydroxytryptamine receptor 6 (Homo sapiens, UniProt P50406). The assay is described as follows: Binding affinity towards human 5-hydroxytryptamine 6 receptor.
Assay [9] concerns the target 5-hydroxytryptamine receptor 7 (Homo sapiens, UniProt P34969). The assay is described as follows: Binding affinity towards 5-hydroxytryptamine 7 receptor.
For assay [10], the target named is 5-hydroxytryptamine receptor 1B (Homo sapiens, UniProt P28222). Nature of the assay: Binding affinity towards 5-hydroxytryptamine 1B receptor.
In assay [11] the target is 5-hydroxytryptamine receptor 1D (Homo sapiens, UniProt P28221). The assay is described as follows: Binding affinity towards 5-hydroxytryptamine 1D receptor.
The target of assay [12] is Sodium-dependent noradrenaline transporter (Homo sapiens, UniProt P23975). The assay is described as follows: Binding affinity towards NET.
The target of the next assay is Dopamine receptor. The assay is described as follows: Binding affinity towards Dopamine receptor. In kind it is protein assay.
Assay [13] has as its target Muscarinic acetylcholine receptor. Nature of the assay: Binding affinity towards Muscarinic acetylcholine receptor. In kind it is protein assay.
The target in assay [14] is GABA-A receptor; anion channel. Nature of the assay: Binding affinity towards GABA-A benzodiazepine receptor. In kind it is protein-complex assay, Rattus norvegicus.
Assay [15] deals with T1, 5-hydroxytryptamine receptor 2A. The assay is described as follows: Binding affinity towards 5-hydroxytryptamine 2A receptor.
Assay [16] concerns the target T4, 5-hydroxytryptamine receptor 1A (Homo sapiens, UniProt P08908).
T4 sequence (P08908 whole entry): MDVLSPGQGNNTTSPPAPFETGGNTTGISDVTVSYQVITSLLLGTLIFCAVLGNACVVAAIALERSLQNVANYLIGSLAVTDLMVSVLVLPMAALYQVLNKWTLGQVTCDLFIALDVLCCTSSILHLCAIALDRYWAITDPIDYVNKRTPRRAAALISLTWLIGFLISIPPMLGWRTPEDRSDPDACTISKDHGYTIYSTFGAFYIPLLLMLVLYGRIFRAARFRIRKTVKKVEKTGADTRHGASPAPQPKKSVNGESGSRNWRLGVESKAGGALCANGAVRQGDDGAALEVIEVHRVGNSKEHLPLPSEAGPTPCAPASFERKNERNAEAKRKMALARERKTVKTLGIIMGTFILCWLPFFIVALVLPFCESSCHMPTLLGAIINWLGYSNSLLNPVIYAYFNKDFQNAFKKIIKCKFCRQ
The assay is described as follows: Binding affinity towards 5-hydroxytryptamine 1A receptor.

Assay [17] addresses Sodium-dependent dopamine transporter (Bos taurus, UniProt P27922). The assay is described as follows: Binding affinity towards DAT (bovine).
Assay [18] deals with Sodium-dependent serotonin transporter (Homo sapiens, UniProt P31645). Nature of the assay: Binding affinity towards Serotonin transporter.
The target in assay [19] is Serotonin 3 (5-HT3) receptor. The assay is described as follows: Binding affinity towards 5-HT3 receptor. In kind it is protein-complex assay.
The target of assay [20] is T1, 5-hydroxytryptamine receptor 2A. Nature of the assay: Binding affinity towards cloned rat 5-hydroxytryptamine 2A receptor from fundus tissue was determined using [3H]mesulergine as radioligand.
For assay [21], the target named is Muscarinic acetylcholine receptor. The assay is described as follows: Binding affinity towards Muscarinic receptor. It counts as protein assay.
The target in assay [22] is Beta-1 adrenergic receptor (Homo sapiens, UniProt P08588). Nature of the assay: Binding affinity towards Beta-1A adrenergic receptor.
The target in assay [23] is Alpha-1A adrenergic receptor (Homo sapiens, UniProt P35348). The assay is described as follows: Binding affinity towards Alpha-1A adrenergic receptor.
In assay [24] the target is Alpha-2B adrenergic receptor (Homo sapiens, UniProt P18089). The assay is described as follows: Binding affinity towards Alpha-2B adrenergic receptor.
For assay [25], the target named is Alpha-2A adrenergic receptor (Homo sapiens, UniProt P08913). The assay is described as follows: Binding affinity towards alpha-2A-Adrenergic receptor.
For assay [26], the target named is Alpha-2C adrenergic receptor (Homo sapiens, UniProt P18825). The assay is described as follows: Binding affinity towards Alpha-2C adrenergic receptor.
Assay [27] concerns the target Beta-2 adrenergic receptor (Homo sapiens, UniProt P07550). Nature of the assay: Binding affinity towards Beta-2A adrenergic receptor.
The target of assay [28] is Alpha-1B adrenergic receptor (Homo sapiens, UniProt P35368). Nature of the assay: Binding affinity towards Alpha-1B adrenergic receptor.

Chain of Sodium-dependent serotonin transporter (P31645 whole entry): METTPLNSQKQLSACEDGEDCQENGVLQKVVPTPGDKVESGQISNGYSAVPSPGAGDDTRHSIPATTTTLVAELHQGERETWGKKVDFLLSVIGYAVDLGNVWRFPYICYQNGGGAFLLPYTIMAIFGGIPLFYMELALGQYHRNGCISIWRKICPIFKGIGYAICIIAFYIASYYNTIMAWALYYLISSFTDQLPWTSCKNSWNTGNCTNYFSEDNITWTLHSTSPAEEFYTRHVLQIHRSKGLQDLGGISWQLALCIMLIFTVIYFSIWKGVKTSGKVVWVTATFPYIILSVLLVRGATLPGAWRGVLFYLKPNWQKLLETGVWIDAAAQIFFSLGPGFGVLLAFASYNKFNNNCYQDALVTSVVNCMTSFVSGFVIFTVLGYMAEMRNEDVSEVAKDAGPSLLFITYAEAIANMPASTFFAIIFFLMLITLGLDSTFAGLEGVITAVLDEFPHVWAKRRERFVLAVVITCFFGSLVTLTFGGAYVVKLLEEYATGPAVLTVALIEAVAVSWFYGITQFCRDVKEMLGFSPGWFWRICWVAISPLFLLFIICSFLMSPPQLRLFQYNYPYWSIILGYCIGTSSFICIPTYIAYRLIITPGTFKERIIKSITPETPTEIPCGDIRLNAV
Chain of 5-hydroxytryptamine receptor 6 (P50406 whole entry): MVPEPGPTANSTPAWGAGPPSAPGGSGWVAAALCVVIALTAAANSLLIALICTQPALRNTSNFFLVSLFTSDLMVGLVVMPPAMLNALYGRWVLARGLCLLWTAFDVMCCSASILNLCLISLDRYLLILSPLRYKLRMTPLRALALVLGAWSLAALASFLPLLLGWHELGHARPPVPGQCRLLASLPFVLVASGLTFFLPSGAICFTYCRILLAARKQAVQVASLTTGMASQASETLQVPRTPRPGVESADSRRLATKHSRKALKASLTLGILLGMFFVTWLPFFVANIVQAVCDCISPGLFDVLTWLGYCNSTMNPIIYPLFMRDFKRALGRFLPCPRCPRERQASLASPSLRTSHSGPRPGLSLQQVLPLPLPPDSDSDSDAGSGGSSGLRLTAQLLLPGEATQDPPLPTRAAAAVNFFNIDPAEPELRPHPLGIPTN
T1 sequence (P14842 whole entry): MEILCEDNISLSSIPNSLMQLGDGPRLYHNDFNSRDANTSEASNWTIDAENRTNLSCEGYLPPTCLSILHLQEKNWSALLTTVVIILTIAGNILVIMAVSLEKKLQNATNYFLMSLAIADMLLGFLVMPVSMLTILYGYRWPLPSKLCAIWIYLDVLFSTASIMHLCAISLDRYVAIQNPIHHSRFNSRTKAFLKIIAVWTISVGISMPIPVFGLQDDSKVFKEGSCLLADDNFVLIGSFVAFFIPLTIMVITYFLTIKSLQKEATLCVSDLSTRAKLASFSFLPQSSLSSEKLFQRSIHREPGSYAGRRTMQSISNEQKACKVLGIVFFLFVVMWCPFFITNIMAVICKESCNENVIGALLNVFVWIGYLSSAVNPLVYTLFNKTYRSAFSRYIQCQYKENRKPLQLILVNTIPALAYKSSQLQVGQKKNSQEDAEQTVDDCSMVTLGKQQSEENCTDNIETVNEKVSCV
Chain of 5-hydroxytryptamine receptor 7 (P34969 whole entry): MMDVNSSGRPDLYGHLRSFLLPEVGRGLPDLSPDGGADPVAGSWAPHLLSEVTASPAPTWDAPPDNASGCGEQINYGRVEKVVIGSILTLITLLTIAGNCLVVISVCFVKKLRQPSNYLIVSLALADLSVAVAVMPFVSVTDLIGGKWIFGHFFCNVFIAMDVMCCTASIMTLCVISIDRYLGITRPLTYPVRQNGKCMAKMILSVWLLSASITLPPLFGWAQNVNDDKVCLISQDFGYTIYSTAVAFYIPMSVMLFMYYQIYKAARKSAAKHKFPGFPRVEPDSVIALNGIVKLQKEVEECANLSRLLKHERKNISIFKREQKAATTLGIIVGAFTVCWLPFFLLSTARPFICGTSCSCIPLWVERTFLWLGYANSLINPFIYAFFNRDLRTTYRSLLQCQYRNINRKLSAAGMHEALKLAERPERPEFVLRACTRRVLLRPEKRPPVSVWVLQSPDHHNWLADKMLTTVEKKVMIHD
Chain of 5-hydroxytryptamine receptor 5A (P47898 whole entry): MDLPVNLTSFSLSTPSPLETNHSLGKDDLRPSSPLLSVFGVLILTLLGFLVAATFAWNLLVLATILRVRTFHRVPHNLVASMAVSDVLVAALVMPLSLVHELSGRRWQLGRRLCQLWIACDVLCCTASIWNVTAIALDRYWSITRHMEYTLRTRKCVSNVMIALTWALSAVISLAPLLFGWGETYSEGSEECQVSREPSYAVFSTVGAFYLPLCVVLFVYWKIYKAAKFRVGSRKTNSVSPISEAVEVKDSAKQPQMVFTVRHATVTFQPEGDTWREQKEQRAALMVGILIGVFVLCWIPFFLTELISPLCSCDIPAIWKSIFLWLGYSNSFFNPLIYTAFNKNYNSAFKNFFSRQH
Chain of Sodium-dependent dopamine transporter (P27922 whole entry): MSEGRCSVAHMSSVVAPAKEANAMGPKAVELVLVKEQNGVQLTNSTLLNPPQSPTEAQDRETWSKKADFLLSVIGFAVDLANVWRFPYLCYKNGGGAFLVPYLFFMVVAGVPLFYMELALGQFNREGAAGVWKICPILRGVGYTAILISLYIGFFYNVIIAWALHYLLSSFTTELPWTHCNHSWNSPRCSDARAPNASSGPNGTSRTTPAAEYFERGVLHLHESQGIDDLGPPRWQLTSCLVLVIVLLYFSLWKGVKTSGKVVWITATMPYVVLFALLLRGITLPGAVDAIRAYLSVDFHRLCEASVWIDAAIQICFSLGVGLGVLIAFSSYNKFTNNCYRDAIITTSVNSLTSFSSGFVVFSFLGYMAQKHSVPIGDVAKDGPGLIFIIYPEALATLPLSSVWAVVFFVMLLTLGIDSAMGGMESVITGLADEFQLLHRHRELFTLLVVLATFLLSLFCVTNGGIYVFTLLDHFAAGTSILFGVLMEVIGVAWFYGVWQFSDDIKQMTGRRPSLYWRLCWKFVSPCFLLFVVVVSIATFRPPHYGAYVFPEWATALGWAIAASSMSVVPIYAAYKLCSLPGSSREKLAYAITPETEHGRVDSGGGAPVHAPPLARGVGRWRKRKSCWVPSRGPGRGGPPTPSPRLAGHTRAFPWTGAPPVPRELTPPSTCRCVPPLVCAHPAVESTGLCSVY
Chain of 5-hydroxytryptamine receptor 1B (P28222 whole entry): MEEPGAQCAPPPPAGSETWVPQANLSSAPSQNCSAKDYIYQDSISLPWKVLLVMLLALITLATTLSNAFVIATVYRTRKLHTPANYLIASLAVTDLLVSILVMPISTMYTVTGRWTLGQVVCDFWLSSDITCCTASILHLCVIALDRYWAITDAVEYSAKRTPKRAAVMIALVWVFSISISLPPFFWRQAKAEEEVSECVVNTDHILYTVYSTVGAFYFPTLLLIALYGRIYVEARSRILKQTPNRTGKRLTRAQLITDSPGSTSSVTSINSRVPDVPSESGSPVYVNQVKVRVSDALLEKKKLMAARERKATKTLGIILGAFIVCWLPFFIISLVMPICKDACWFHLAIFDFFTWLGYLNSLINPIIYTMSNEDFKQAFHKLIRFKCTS
Chain of Sodium-dependent noradrenaline transporter (P23975 whole entry): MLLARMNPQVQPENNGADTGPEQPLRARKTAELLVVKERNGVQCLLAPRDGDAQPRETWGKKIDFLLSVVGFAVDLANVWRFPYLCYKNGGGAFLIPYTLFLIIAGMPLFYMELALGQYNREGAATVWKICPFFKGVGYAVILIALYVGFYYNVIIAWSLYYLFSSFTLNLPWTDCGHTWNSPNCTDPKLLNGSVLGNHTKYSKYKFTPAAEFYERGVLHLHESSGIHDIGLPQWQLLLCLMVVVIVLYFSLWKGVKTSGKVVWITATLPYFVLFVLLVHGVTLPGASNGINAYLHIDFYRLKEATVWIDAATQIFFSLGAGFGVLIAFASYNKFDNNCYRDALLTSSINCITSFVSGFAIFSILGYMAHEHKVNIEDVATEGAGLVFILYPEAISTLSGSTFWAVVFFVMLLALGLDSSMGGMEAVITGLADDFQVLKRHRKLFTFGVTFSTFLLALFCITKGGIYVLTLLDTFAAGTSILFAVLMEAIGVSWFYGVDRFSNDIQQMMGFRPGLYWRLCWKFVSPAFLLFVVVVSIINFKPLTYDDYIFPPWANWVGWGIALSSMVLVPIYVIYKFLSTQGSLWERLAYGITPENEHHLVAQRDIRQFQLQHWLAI
Chain of 5-hydroxytryptamine receptor 1D (P28221 whole entry): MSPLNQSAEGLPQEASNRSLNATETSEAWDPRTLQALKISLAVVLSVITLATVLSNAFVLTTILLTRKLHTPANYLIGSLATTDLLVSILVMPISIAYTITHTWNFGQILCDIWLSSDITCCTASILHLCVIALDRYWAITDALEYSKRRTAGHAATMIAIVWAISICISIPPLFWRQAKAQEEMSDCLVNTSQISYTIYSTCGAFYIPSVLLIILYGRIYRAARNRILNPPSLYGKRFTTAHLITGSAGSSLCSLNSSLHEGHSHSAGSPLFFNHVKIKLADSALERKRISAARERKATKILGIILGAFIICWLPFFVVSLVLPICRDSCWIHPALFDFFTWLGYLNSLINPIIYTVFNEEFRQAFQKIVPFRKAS
Chain of Alpha-2C adrenergic receptor (P18825 whole entry): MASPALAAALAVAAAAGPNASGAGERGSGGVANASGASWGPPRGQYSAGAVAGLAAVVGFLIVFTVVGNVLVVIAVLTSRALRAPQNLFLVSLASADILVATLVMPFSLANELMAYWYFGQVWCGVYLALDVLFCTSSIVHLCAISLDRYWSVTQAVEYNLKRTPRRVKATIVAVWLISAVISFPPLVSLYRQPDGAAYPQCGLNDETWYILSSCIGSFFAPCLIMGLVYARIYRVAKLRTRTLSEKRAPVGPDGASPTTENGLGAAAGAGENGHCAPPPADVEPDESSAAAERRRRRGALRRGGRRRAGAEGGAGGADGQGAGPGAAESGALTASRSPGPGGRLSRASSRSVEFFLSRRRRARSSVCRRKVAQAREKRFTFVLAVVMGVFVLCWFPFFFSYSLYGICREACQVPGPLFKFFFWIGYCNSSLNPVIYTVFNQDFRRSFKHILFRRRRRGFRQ

The Ki is a measure of affinity in units of concentration, obtained from inhibition or displacement. A low value points to tighter binding. Regarding `COc1ccc2[nH]c3c(c2c1)CCNC3`, the Ki in [1] is 4780 nM; in assay [2] it was 2190 nM; in [3], 1400 nM.

For the compound `C1=NCCc2c1[nH]c1ccccc21`, the Ki was 2150 nM in assay [4], 1100 nM in [2] and 2560 nM in assay [5].

As for `Brc1cccc2[nH]c3c(c12)CCN=C3`, the Ki was 390 nM in [1] and 140 nM in [2].

For `COc1cccc2c3c([nH]c12)C=NCC3`, the Ki is 3240 nM in [1], 1350 nM in [2] and 2550 nM in [3].

With `COc1cccc2c3c([nH]c12)CNCC3`, the figures for the Ki in [1], in [2] and in [3] were 640 nM, 1270 nM and 400 nM, respectively.

With `CC1=NCCc2c1[nH]c1ccccc21`, the Ki in assay [6] is 1860 nM; in assay [7], 845 nM; in [8], 1450 nM; in assay [9] it was 280 nM; in assay [10] it was above 10000 nM; in [11] it was above 10000 nM. For the same compound, the Ki in [12] was above 10000 nM; on Dopamine receptor, above 10000 nM; in [13], above 10000 nM; in assay [14], above 10000 nM; in assay [15], 1150 nM; in assay [16], above 1670 nM. The Ki in assay [17], in assay [18] and in [19] was above 10000 nM each time.

As to `COc1ccc2[nH]c3c(c2c1)CCN=C3C`, the Ki in [6] is 924 nM; in assay [7] it was above 10000 nM; in assay [8], 1930 nM; in [9], 2960 nM; in assay [10] it was above 10000 nM; in assay [11], above 10000 nM. Besides, the Ki was above 4100 nM in assay [12]; above 10000 nM at Dopamine receptor; above 10000 nM in [13]; above 10000 nM in assay [14]; 5600 nM in assay [15]; above 10000 nM in assay [16]. In addition, the Ki in [17], in assay [18] and in assay [19] was above 10000 nM each time.

`CC(C)Oc1cccc2[nH]c3c(c12)CCN=C3`: in [20], affinity was put at a Ki of 1410 nM.

Take `CC1=NCCc2c1[nH]c1cccc(OC(C)C)c21`: the inhibitory constant (Ki) in [1] was determined as 470 nM; in assay [2] it was 26 nM.

In the case of `C1=NCCc2c1[nH]c1cccc(OCc3ccccc3)c21`, the results for the Ki in [1] and in assay [2] were 124 nM and 200 nM, respectively.

Turning to `Brc1ccc2c3c([nH]c2c1)C=NCC3`, the results for the inhibitory constant (Ki) in assay [1] and in assay [2] were 1330 nM and 2100 nM, respectively.

In the case of `Brc1ccc2c3c([nH]c2c1)CNCC3`, the figures for the Ki in assay [1] and in assay [2] were 240 nM and 250 nM, respectively.

As to `COc1ccc2c3c([nH]c2c1)CNCC3`, the Ki in assay [21], in assay [22], in assay [23], in assay [6], in [7] and in assay [8] was above 10000 nM each time. The Ki in assay [9] was 1400 nM; in [1] it was 4620 nM; in assay [10], above 10000 nM; in [11], above 10000 nM; in [24] it was 140 nM; in assay [25], 1370 nM. Moreover, the Ki in assay [26] is 1740 nM; in [15] it was 4620 nM; in assay [27], above 10000 nM; in assay [2] it was above 10000 nM; in [16], above 10000 nM; in assay [28] it was above 10000 nM. In addition, the Ki in [18] was above 10000 nM; in [3], 2200 nM; in [19], above 10000 nM.

On to `Brc1cccc2[nH]c3c(c12)CCNC3`, for which the results for the Ki in assay [1], in assay [2] and in [3] were 180 nM, 130 nM and 80 nM, respectively.

Consider `Brc1ccc2[nH]c3c(c2c1)CCNC3`, for which the inhibitory constant (Ki) in assay [1] was 500 nM; in assay [2] it was 210 nM.

Take `COc1cccc2[nH]c3c(c12)CCNC3`: the values for the inhibition constant (Ki) in assay [1], in assay [2] and in [3] were 130 nM, 140 nM and 75 nM, respectively.

As to `COc1cccc2[nH]c3c(c12)CCN=C3`, the Ki in [1] is 470 nM; in [2] it was 75 nM; in assay [3], 500 nM.

With `Brc1ccc2[nH]c3c(c2c1)CCN=C3`, the Ki in assay [1] came to 1720 nM; in assay [2], 1200 nM.

Consider `COc1ccc2[nH]c3c(c2c1)CCN=C3`, for which the inhibitory constant (Ki) in assay [1] worked out at 2370 nM; in [2] it was 1170 nM.

As for `Brc1cccc2c3c([nH]c12)C=NCC3`, the inhibition constant Ki in assay [1] was determined as 110 nM; in [2], 140 nM; in assay [3], 115 nM.

In the case of `Brc1cccc2c3c([nH]c12)CNCC3`, the results for the Ki in assay [1], in assay [2] and in assay [3] were 22 nM, 48 nM and 21 nM, respectively.

In the case of `COc1ccc2c3c([nH]c2c1)C=NCC3` [CGS-19281A], the Ki in assay [1], in [2] and in [3] was above 10000 nM throughout.

`COc1ccc2c(c1)[nH]c1c(C)nccc12` [HARMINE]: the inhibition constant Ki was above 10000 nM in assay [22]; above 10000 nM in assay [23]; 9340 nM in [6]; above 10000 nM in assay [7]; 1480 nM in [8]; 5500 nM in assay [9]. For the same compound, the Ki in assay [10] is above 10000 nM; in assay [11] it was above 10000 nM; in assay [12], 3260 nM; in assay [24], 1130 nM; on Dopamine receptor it was above 10000 nM; in assay [13], above 10000 nM. The Ki was 2540 nM in assay [25]; above 10000 nM in assay [14]; 810 nM in [26]; 7790 nM in assay [15]; above 10000 nM in [27]; above 10000 nM in assay [16]. Also, the Ki in assay [17], in [28], in assay [18] and in [19] was above 10000 nM throughout.

As for `c1ccc2c3c([nH]c2c1)CNCC3` [TRYPTOLINE], the Ki was 3800 nM in assay [1], above 10000 nM in assay [2] and 3000 nM in assay [3].

Values taken from ChEMBL document CHEMBL1144986, “Binding of beta-carbolines at 5-HT(2) serotonin receptors” (Bioorg Med Chem Lett, 2003).
